What follows are compounds tested on HBV (encapsidated HBV DNA, HepG2.2.15 cells) (assay: HBV replication inhibition assay, BDNA assay in HepG2.2.15 cells). Details: Activity in BDNA-assay.
Assay type: cell-based
Protocol: HBV replication inhibition by the disclosed compounds were determined in cells infected or transfected with HBV, or cells with stably integrated HBV, such as HepG2.2.15 cells (Sells et al. 1987). In this example, HepG2.2.15 cells were maintained in cell culture medium containing 10% fetal bovine serum (FBS), Geneticin, L-glutamine, penicillin and streptomycin. HepG2.2.15 cells were seeded in 96-well plates at a density of 40,000 cells/well and were treated with serially diluted compounds at a final DMSO concentration of 0.5% either alone or in combination by adding drugs in a checker box format. Cells were incubated with compounds for three days, after which medium was removed and fresh medium containing compounds was added to cells and incubated for another three days. At day 6, supernatant was removed and treated with DNase at 37° C. for 60 minutes, followed by enzyme inactivation at 75° C. for 15 minutes. Encapsidated HBV DNA was released from the virions and covalently linked HBV polymerase by incubating in lysis buffer (Affymetrix QS0010) containing 2.5 μg proteinase K at 50° C. for 40 minutes. HBV DNA was denatured by addition of 0.2 M NaOH and detected using a branched DNA (BDNA) QuantiGene assay kit according to manufacturer recommendation (Affymetrix). HBV DNA levels were also quantified using qPCR, based on amplification of encapsidated HBV DNA extraction with QuickExtraction Solution (Epicentre Biotechnologies) and amplification of HBV DNA using HBV specific PCR probes that can hybridize to HBV DNA and a fluorescently labeled probe for quantitation. In addition, cell viability of HepG2.2.15 cells incubated with test compounds alone or in combination was determined by using CellTitre-Glo reagent according to the manufacturer protocol (Promega). The mean background signal from wells containing only culture medium was subtracted from all other samples, and percent inhibition at each compound concentration was calculated by normalizing to signals from HepG2.2.15 cells treated with 0.5% DMSO using equation E1. % inhibition=(DMSOave−Xi)/DMSOave×100% E1: where DMSOave is the mean signal calculated from the wells that were treated with DMSO control (0% inhibition control) and Xi is the signal measured from the individual wells. EC50 values, effective concentrations that achieved 50% inhibitory effect, were determined by non-linear fitting using Graphpad Prism software (San Diego, Calif.) and equation E2: Y=Y min+(Y max −Y min)/(1+10(Log EC50−X)×HillSlope) E2: […]
where Y represents percent inhibition values and X represents the logarithm of compound concentrations.
Selected disclosed compounds were assayed in the HBV replication assay (BDNA assay), as described above and a representative group of these active compounds is shown in Table 6.

Question: For CN1CC([S+](C)[O-])Cn2nc3c(c2C1=O)CN(C(=O)Nc1ccc(F)c(Cl)c1)CC3 (single isomer, unassigned) [Compound 026B, N-(3-chloro-4-fluoro-phenyl)-10-methyl-8-methylsulfinyl-11-oxo-1,3,4,7,8,9-hexahydropyrido[2,3]pyrazolo[2,4-b][1,4]diazepine-2-carboxamide], which EC50 is on record?
Answer: Its EC50 is 500 to 1000 nM.

Question: How did the EC50 turn out when C[C@@H]1Cc2nn3c(c2CN1C(=O)Nc1ccc(F)c(Cl)c1)C(=O)N(C)CC(C)(F)C3 (single isomer, unassigned) [Compound 079_D2, (3R,8S*)—N-(3-chloro-4-fluorophenyl)-8-fluoro-3,8,10-trimethyl-11-oxo-1,3,4,7,8,9,10,11-octahydro-2H-pyrido[4′,3′:3,4]pyrazolo[1,5-a][1,4]diazepine-2-carboxamide] was run?
Answer: Its EC50 is 1 to 100 nM.

Question: How did the EC50 turn out when CC1CN(C)C(=O)c2c3c(nn2C1)C[C@@H](C)N(C(=O)Nc1ccc(F)c(Cl)c1)C3 (single isomer, unassigned) [Compound 080_D2, (3R,8R*)—N-(3-chloro-4-fluorophenyl)-3,8,10-trimethyl-11-oxo-3,4,8,9,10,11-hexahydro-1H-pyrido[4′,3′:3,4]pyrazolo[1,5-a][1,4]diazepine-2 (7H)-carboxamide] was run?
Answer: Its EC50 is 1 to 100 nM.

Question: C[C@@H]1Cc2nn3c(c2CN1C(=O)Nc1ccc(F)c(C(F)(F)F)c1)C(=O)N(C)CC(CO)C3 (single isomer, unassigned) [Compound 081_D2, (3R,8R*)—N-(4-fluoro-3-(trifluoromethyl)phenyl)-8-(hydroxymethyl)-3,10-dimethyl-11-oxo-3,4,8,9,10,11-hexahydro-1H-pyrido[4′,3′:3,4]pyrazolo[1,5-a][1,4]diazepine-2 (7H)-carboxamide] was tested. Which EC50 did it give?
Answer: Its EC50 is 1 to 100 nM.

Question: With C[C@@H]1Cc2nn3c(c2CN1C(=O)Nc1cc(C(F)(F)F)c(F)cc1F)C(=O)N(C)CC(CO)C3 (single isomer, unassigned) [Compound 082_D1, (3R,8S*)—N-(2,4-difluoro-5-(trifluoromethyl)phenyl)-8-(hydroxmethyl)-3,10-dimethyl-11-oxo-1,3,4,7,8,9,10,11-octahydro-2H-pyrido[4′,3′:3,4]pyrazolo[1,5-a][1,4]diazepine-2-carboxamide] as the compound, how does the EC50 read?
Answer: Its EC50 is 1 to 100 nM.

Question: C[C@@H]1Cc2nn3c(c2CN1C(=O)Nc1cc(C(F)(F)F)c(F)cc1F)C(=O)N(C)CC(CO)C3 (single isomer, unassigned) [Compound 082_D2, (3R,8R*)—N-(2,4-difluoro-5-(trifluoromethyl)phenyl)-8-(hydroxymethyl)-3,10-dimethyl-11-oxo-1,3,4,7,8,9,10,11-octahydro-2H-pyrido[4′,3′:3,4]pyrazolo[1,5-a][1,4]diazepine-2-carboxamide] was tested. Which EC50 did it give?
Answer: Its EC50 is 100 to 500 nM.

Question: With C[C@@H]1Cc2nn3c(c2CN1C(=O)Nc1ccc(F)c(C(F)(F)F)c1F)C(=O)N(C)CC(CO)C3 (single isomer, unassigned) [Compound 083_D2, (3R,8R*)—N-(2,4-difluoro-3-(trifluoromethyl)phenyl)-8-(hydroxymethyl)-3,10-dimethyl-11-oxo-1,3,4,7,8,9,10,11-octahydro-2H-pyrido[4′,3′:3,4]pyrazolo[1,5-a][1,4] diazepine-2-carboxamide] as the compound, how does the EC50 read?
Answer: Its EC50 is 1 to 100 nM.

Question: With C[C@@H]1Cc2nn3c(c2CN1C(=O)Nc1ccc(F)c(Br)c1F)C(=O)N(C)CC(CO)C3 (single isomer, unassigned) [Compound 084_D1, (3R,8S*)—N-(3-bromo-2,4-difluorophenyl)-8-(hydroxymethyl)-3,10-dimethyl-11-oxo-1,3,4,7,8,9,10,11-octahydro-2H-pyrido[4′,3′:3,4]pyrazolo[1,5-a][1,4]diazepine-2-carboxamide] as the compound, how does the EC50 read?
Answer: Its EC50 is 100 to 500 nM.

Question: For C[C@@H]1Cc2nn3c(c2CN1C(=O)Nc1ccc(F)c(Br)c1F)C(=O)N(C)CC(CO)C3 (single isomer, unassigned) [Compound 084_D2, (3R,8R*)—N-(3-bromo-2,4-difluorophenyl)-8-(hydroxymethyl)-3,10-dimethyl-11-oxo-1,3,4,7,8,9,10,11-octahydro-2H-pyrido[4′,3′:3,4]pyrazolo[1,5-a][1,4]diazepine-2-carboxamide], which EC50 is on record?
Answer: The EC50 was 1 to 100 nM.

Question: C[C@@H]1Cc2nn3c(c2CN1C(=O)Nc1cc(Br)c(F)cc1F)C(=O)N(C)CC(CO)C3 (single isomer, unassigned) [Compound 085_D2, (3R,8R*)—N-(5-bromo-2,4-difluorophenyl)-8-(hydroxymethyl)-3,10-dimethyl-11-oxo-1,3,4,7,8,9,10,11-octahydro-2H-pyrido[4′,3′:3,4]pyrazolo[1,5-a][1,4]diazepine-2-carboxamide] was tested. Which EC50 did it give?
Answer: Its EC50 is 1 to 100 nM.

Question: How did the EC50 turn out when C[C@@H]1Cc2nn3c(c2CN1C(=O)Nc1ccc(F)c(Br)c1)C(=O)N(C)CC(CO)C3 (single isomer, unassigned) [Compound 086_D2, (3R,8R*)—N-(3-bromo-4-fluorophenyl)-8-(hydroxymethyl)-3,10-dimethyl-11-oxo-1,3,4,7,8,9,10,11-octahydro-2H-pyrido[4′,3′:3,4]pyrazolo[1,5-a][1,4]diazepine-2-carboxamide] was run?
Answer: The EC50 was 1 to 100 nM.

Same assay, conditions: Hepatitis B virus, HepG2.2.15, Activity in BDNA-assay

Question: For COC1CN(C)C(=O)c2c3c(nn2C1)CCN(C(=O)Nc1ccc(F)c(Cl)c1)C3 (single isomer, unassigned) [Compound 016B, (R*)—N-(3-chloro-4-fluorophenyl)-8-methoxy-10-methyl-11-oxo-3,4,8,9,10,11-hexahydro-1H-pyrido[4′,3′:3,4]pyrazolo[1,5-a][1,4]diazepine-2 (7H)-carboxamide], which EC50 is on record?
Answer: The EC50 was 1 to 100 nM.

Question: CN1CC([S+](C)[O-])Cn2nc3c(c2C1=O)CN(C(=O)Nc1ccc(F)c(Cl)c1)CC3 (single isomer, unassigned) [Compound 026A, N-(3-chloro-4-fluoro-phenyl)-10-methyl-8-methylsulfinyl-11-oxo-1,3,4,7,8,9-hexahydropyrido[2,3]pyrazolo[2,4-b][1,4]diazepine-2-carboxamide] was tested. Which EC50 did it give?
Answer: The EC50 was greater than 1000 nM.

Question: C[C@@H]1Cc2nn3c(c2CN1C(=O)Nc1ccc(F)c(Cl)c1)C(=O)N(C)CC(C)(F)C3 (single isomer, unassigned) [Compound 079_D1, (3R,8R*)—N-(3-chloro-4-fluorophenyl)-8-fluoro-3,8,10-trimethyl-11-oxo-1,3,4,7,8,9,10,11-octahydro-2H-pyrido[4′,3′:3,4]pyrazolo[1,5-a][1,4]diazepine-2-carboxamide] was tested. Which EC50 did it give?
Answer: Its EC50 is 1 to 100 nM.

Question: CC1CN(C)C(=O)c2c3c(nn2C1)C[C@@H](C)N(C(=O)Nc1ccc(F)c(Cl)c1)C3 (single isomer, unassigned) [Compound 080_D1, (3R,8S*)—N-(3-chloro-4-fluorophenyl)-3,8,10-trimethyl-11-oxo-3,4,8,9,10,11-hexahydro-1H-pyrido[4′,3′,3,4]pyrazolo[1,5-a][1,4] diazepine-2 (7H)-carboxamide] was tested. Which EC50 did it give?
Answer: The EC50 was 1 to 100 nM.

Question: With C[C@@H]1Cc2nn3c(c2CN1C(=O)Nc1ccc(F)c(C(F)(F)F)c1)C(=O)N(C)CC(CO)C3 (single isomer, unassigned) [Compound 081_D1, (3R,8S*)—N-(4-fluoro-3-(trifluoromethyl)phenyl)-8-(hydroxymethyl)-3,10-dimethyl-11-oxo-3,4,8,9,10,11-hexahydro-1H-pyrido[4′,3′:3,4]pyrazolo[1,5-a][14]diazepine-2 (7H)-carboxamide] as the compound, how does the EC50 read?
Answer: The EC50 was 1 to 100 nM.

Question: C[C@@H]1Cc2nn3c(c2CN1C(=O)Nc1ccc(F)c(C(F)(F)F)c1F)C(=O)N(C)CC(CO)C3 (single isomer, unassigned) [Compound 083_D1, (3R,8S*)—N-(2,4-difluoro-3-(trifluoromethyl)phenyl)-8-(hydroxymethyl)-3,10-dimethyl-11-oxo-1,3,4,7,8,9,10,11-octahydro-2H-pyrido[4′,3′:3,4]pyrazolo[1,5-a][1,4] diazepine-2-carboxamide] was tested. Which EC50 did it give?
Answer: Its EC50 is 1 to 100 nM.

Question: C[C@@H]1Cc2nn3c(c2CN1C(=O)Nc1cc(Br)c(F)cc1F)C(=O)N(C)CC(CO)C3 (single isomer, unassigned) [Compound 085_D1, (3R,8 S*)—N-(5-bromo-2,4-difluorophenyl)-8-(hydroxymethyl)-3,10-dimethyl-11-oxo-1,3,4,7,8,9,10,11-octahydro-2H-pyrido[4′,3′:3,4]pyrazolo[1,5-a][1,4]diazepine-2-carboxamide] was tested. Which EC50 did it give?
Answer: The EC50 was 1 to 100 nM.

Question: C[C@@H]1Cc2nn3c(c2CN1C(=O)Nc1ccc(F)c(Br)c1)C(=O)N(C)CC(CO)C3 (single isomer, unassigned) [Compound 086_D1, (3R,8S*)—N-(3-bromo-4-fluorophenyl)-8-(hydroxymethyl)-3,10-dimethyl-11-oxo-1,3,4,7,8,9,10,11-octahydro-2H-pyrido[4′,3′:3,4]pyrazolo[1,5-a][1,4]diazepine-2-carboxamide] was tested. Which EC50 did it give?
Answer: The EC50 was 1 to 100 nM.

Reference: patent US10975077B2 (Novira Therapeutics, Inc., priority 2016, dated 2021)
